One data set concerns CYP3A4. In words: CYP3A4 induction (mRNA) in human hepatocytes. It is filed as in vitro ADME. The following applies: for CYP (3A4) mRNA induction, result in words: compared with positive control rifampicin. The procedure: Cryopreserved human hepatocytes from a single donor were seeded at 0.1 × 10^6 cells/well. The next day, cells were dosed with test compound in assay medium (final test compound concentration 10 μM; final DMSO concentration 0.1%). Positive control inducer, rifampicin, for CYP3A4, was incubated alongside the test compound. Negative control wells were included where the test compound is replaced by vehicle solvent (0.1% DMSO in assay medium). Each test or control compound was dosed in triplicate at a single concentration (10 μM). The cells were exposed to the solutions for 72 h with fresh solution added every 24 h. For mRNA assessment, all media was removed from each of the wells, and the cells were washed once. The cells were lysed, and total RNA was then isolated from the hepatocyte lysates. Reverse transcription was performed, and quantitative PCR analysis was performed on the resulting cDNA, using gene-specific primer probe sets for CYP3A4 target cDNA and endogenous control. Samples were analyzed using an ABI 7900 HT real time PCR system. For mRNA assessment, relative fold mRNA expression was determined based on the threshold cycle (CT) data of target gene relative to endogenous control for each reaction and normalized to negative control using the 2-ΔΔCT method. Data were expressed as fold activation relative to the vehicle control and, as a percent, to the 10 μM rifampicin using the following formula: % of positive control = ((fold increase of the cpd relative to vehicle control – 1)/(fold increase of the rifampicin at 10 μM – 1)) × 100.

Data set [1] in a line: Plasma protein binding, rat. Type of data set: in vitro ADME. As to conditions: pH 7.4, read-out: PPB % rat (converted). Put shortly:
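Equilibrium dialysis of 5 μM compound (0.5% DMSO) in plasma against PBS pH 7.4 for 4 h at 37 °C with shaking. Both chambers were matrix-matched, protein-precipitated with acetonitrile and quantified by LC–MS/MS. The summed peak areas of both chambers were taken as 100% compound.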

The nature of data set [2]: Hepatocyte stability, human. It is filed as in vitro ADME. The following applies: for CLint scaled at 1 μM: read-out: Hep CLint,u human. The procedure: The hepatocyte stability assay was performed by incubation of test compound at 1 μM, 0.03% DMSO in modified Krebs–Henseleit buffer with suspension of pooled cryopreserved hepatocytes (BioIVT, Hicksville, NY, USA) from mouse, rat, dog, or human (BioIVT, Hicksville, NY, USA) at 0.5 million viable hepatocytes/mL. Before adding the hepatocytes (time zero) and after 10, 20, 45, 90, 120, and 180 min of incubation (n = 2) at 37 °C while gently shaking, the reaction was stopped and proteins were precipitated with an excess of acetonitrile containing an internal standard. The samples were mixed, centrifuged, and filtered, and the supernatant was analyzed by liquid chromatography–mass spectrometry/mass spectrometry (LC–MS/MS). The instrument responses (peak areas/IS peak areas) were referenced to the zero-time point samples (considered as 100%) in order to determine the percentage of compound remaining.

The nature of the next data set: PK rat. Type of data set: in vivo. As to conditions: for CLu rat: unbound clearance; for clearance: read-out: CLp rat (converted); for Vd: read-out: Vss rat. Put shortly: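 Male Sprague–Dawley rats, 6–8 weeks, dosed 0.1 mg/kg iv bolus (PEG200/water 60/40) or 5 mg/kg oral gavage (0.5% MC suspension, fasted ≥12 h until 3 h post-dose); n = 3 per route. Plasma sampled up to 24 h, assayed by LC-MS/MS; noncompartmental PK parameters.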

Data set [3] in a line: In vitro micronucleus test. Type of data set: cell-based.
In the next data set the target is T1, CYP2C19 (Homo sapiens, UniProt P33261).
T1 construct: tissue BD Gentest; host or cells: human liver microsomes
In words: CYP reversible inhibition in HLM, CYP2C19. The following applies: probe S-mephenytoin. It is filed as in vitro ADME. On the procedure:
Test compounds were diluted in methanol and then added to mixture containing 50 mM potassium phosphate buffer, pH 7.4, human liver microsomes (BD Gentest) and probe substrate. After prewarming for 5 min at 37 °C, the reaction was started by adding cofactor mix (7.65 mg/mL glucose-6-phosphate, 1.7 mg/mL NADP, 6 U/mL of glucose-6-phosphate dehydrogenase), resulting in seven final concentrations of test compounds in the range 0.14–100 μM (2% methanol). Isoform specific conditions regarding probe substrate and microsomal protein concentrations are available in Table 2. Final concentrations of cofactor mix components were as follows: 1.56 mg/mL glucose-6-phosphate, 0.34 mg/mL NADP, and 1.2 U/mL glucose-6-phosphate dehydrogenase. After incubation at 37 °C, the reaction was terminated with acetonitrile:methanol (2:1) solution with internal standard. Samples were centrifuged, and the supernatant fractions were analyzed by LC-MS/MS. The instrument responses (test compounds and internal standard peak areas) were referenced to those for solvent controls (assumed as 100%) in order to determine the percentage reduction in probe metabolism. Percent of control activity vs concentration plots were generated and fitted using GraphPad Prism software to generate IC50.

Setting [4] is: male, Sprague-Dawley, plasma, 0.1 mg/kg, iv.
[5] abbreviates: male, Sprague-Dawley, plasma, 0.1 mg/kg, iv, read-out: t1/2 iv rat (converted).
Setting [6] is: male, Sprague-Dawley, plasma, iv, 0.1 mg/kg, iv.

Read-outs that look alike come from different tables or passages of the source.

T1 sequence (P33261 whole entry): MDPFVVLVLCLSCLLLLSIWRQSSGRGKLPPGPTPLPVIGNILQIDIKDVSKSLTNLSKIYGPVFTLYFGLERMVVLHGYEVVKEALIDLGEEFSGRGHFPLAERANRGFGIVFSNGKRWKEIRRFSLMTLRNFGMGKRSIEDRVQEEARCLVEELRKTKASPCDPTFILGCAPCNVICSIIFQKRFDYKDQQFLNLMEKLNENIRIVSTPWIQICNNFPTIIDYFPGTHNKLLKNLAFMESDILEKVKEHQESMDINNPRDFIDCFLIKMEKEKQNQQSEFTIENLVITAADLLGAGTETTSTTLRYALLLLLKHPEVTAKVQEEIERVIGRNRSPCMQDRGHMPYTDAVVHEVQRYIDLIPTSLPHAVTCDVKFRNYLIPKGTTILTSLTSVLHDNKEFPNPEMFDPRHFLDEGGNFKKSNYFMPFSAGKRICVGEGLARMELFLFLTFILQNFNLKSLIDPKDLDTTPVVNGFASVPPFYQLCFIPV

For `CN(C)S(=O)(=O)NC(=O)c1cc(N2CCC(N3CCOCC3)CC2)c2c(C3CCC3)nn(-c3ccc(F)cc3)c2n1` [Compound 51], the “CYP induction @10 μM (mRNA) % rifampicin” value in the data set on CYP3A4 (data generated by AbbVie team) is listed as 45%; in the data set with CYP3A4 (data generated by Galapagos), 24%. In addition, the “CYP (3A4) mRNA induction, result in words” value in the data set with CYP3A4 is listed as “demonstrated CYP mRNA induction”. For the same compound, the fraction unbound at 4 h, 5 μM in data set [1] is 0.015. Moreover, the CLint scaled at 1 μM in data set [2] (pooled cryopreserved hepatocytes in suspension) is less than 11 mL/min/kg. The same compound showed a CLu rat in “PK rat” (iv) of 220 mL/min/kg. Besides, the clearance in the data set “PK rat” (setting [4]) was 3.17 mL/min/kg. Also, in “PK rat” (setting [5]), the half-life at 24 h is 3.6 h. The Vd in “PK rat” (setting [6]) was 0.81 L/kg.

Regarding `COC1CCN(C2CCN(c3cc(C(=O)NS(=O)(=O)N(C)C)nc4c3c(C3CCC3)nn4-c3ccc(F)cc3)CC2)CC1` [Compound 52, 3-Cyclobutyl-N-(N,N-dimethylsulfamoyl)-1-(4-fluorophenyl)-4-(4-methoxy-[1,4′-bipiperidin]-1′-yl)-1H-pyrazolo[3,4-b]pyridine-6-carboxamide], the “CYP induction @10 μM (mRNA) % rifampicin” value with CYP3A4 (data generated by AbbVie team) stood at 4%; with CYP3A4 (data generated by Galapagos), 6%. Also, in the data set with CYP3A4, the “CYP (3A4) mRNA induction, result in words” value is given as “devoid of any CYP mRNA induction liability”. Further, the clastogenicity / aneugenicity entry in data set [3] is “not mutagenic, clastogenic, or aneugenic”. The fraction unbound at 4 h, 5 μM in data set [1] (rat) is 0.016. The compound further came in with an IC50 against CYP2C19 greater than 33 µM. Besides, in data set [2] (human hepatocytes), the “Hepatocyte stability: %LBF human” value came to 22 %LBF. Besides, the “Hepatocyte stability: predicted hepCl human” value in data set [2] (human hepatocytes, 1 µM) was less than 4.67 mL/min/kg. The CLint scaled at 1 μM in data set [2] (human hepatocytes) is less than 12.8 mL/min/kg. In the data set “PK rat” (30 mg/kg po), the “F (%) rat” value worked out at 69.1%. The exposure versus dose entry in the data set “PK rat” (dose of 5 to 300 mg/kg) is listed as “dose proportional increase in exposure”. Moreover, the CLu rat in “PK rat” (iv) is 333 mL/min/kg. In addition, the clearance in “PK rat” (setting [4]) was 5.33 mL/min/kg. In addition, the half-life in “PK rat” (setting [5]) is 3.45 h. The Vd in “PK rat” (setting [6]) was found to be 1.38 L/kg.

For orientation: IC50 means the midpoint of a concentration-inhibition curve.

Values taken from paper PMC11017246, “Discovery of GLPG2737, a Potent Type 2 Corrector of CFTR for the Treatment of Cystic Fibrosis in Combination with a Potentiator and a Type 1 Co-corrector” (Journal of Medicinal Chemistry, 2024).
